Experimental data: patent US20200085776A1, “Methods of Reducing C-Reactive Protein and/or Treating Cardiovascular Disease” (CARDAX, INC., priority 2018, published 2020)

Tested on: HDL
Experiment: Fasting lipid panel: HDL, CHASE clinical study
Format: in vivo, human
Conditions: for HDL V2 to V6 % Change Max / HDL V2 to V6 % Change Mean (SD) / HDL V2 to V6 % Change Median / HDL V2 to V6 % Change Min / HDL V2 to V6 Change Max / HDL V2 to V6 Change Mean (SD) / HDL V2 to V6 Change Median / HDL V2 to V6 Change Min: baseline to Week 12
Source text: Blood samples shall be obtained under fasted conditions for a lipid panel at V2, V4, V6, V7, and V8. This panel shall include total cholesterol, LDL-C, VLDL-C, HDL-C, and triglycerides. A minimum eight-hour fast (water allowed) is required for the lipid panel.
Fasting lipid profiles and fasting chemistry panels may be obtained within the visit time window on a day separate from the scheduled office visit, within two days before or after the other study procedures. A minimum of eight hours fasted (water allowed ad lib) is required.
Table 7M provides the changes in lipid levels (mg/dL) (V2 to V6) for subjects.

[1] = Group X 12 mg BID, V2 baseline pre-dose, all subjects
[2] = Group X 12 mg BID, V2 baseline pre-dose, subjects with hyperlipidemia
[3] = Group X 12 mg BID, V6 Week 12, all subjects
[4] = Group X 12 mg BID, V6 Week 12, subjects with hyperlipidemia
[5] = Group X 12 mg BID, all subjects
[6] = Group X 12 mg BID, subjects with hyperlipidemia
[7] = Group Z 48 mg BID, V2 baseline pre-dose, all subjects
[8] = Group Z 48 mg BID, V2 baseline pre-dose, subjects with hyperlipidemia
[9] = Group Z 48 mg BID, V6 Week 12, all subjects
[10] = Group Z 48 mg BID, V6 Week 12, subjects with hyperlipidemia
[11] = Group Z 48 mg BID, all subjects
[12] = Group Z 48 mg BID, subjects with hyperlipidemia

CC1=C(/C=C/C(C)=C/C=C/C(C)=C/C=C/C=C(C)/C=C/C=C(C)/C=C/C2=C(C)C(=O)C(O)CC2(C)C)C(C)(C)CC(O)C1=O (stereo not shown) [Astaxanthin, astaxanthin]
HDL Max [1]: 73.00 mg/dL
HDL Mean (SD) [1]: 46.00 (17.37) mg/dL
HDL Median [1]: 42.00 mg/dL
HDL Min [1]: 24.00 mg/dL
HDL Max [2]: 67.00 mg/dL
HDL Mean (SD) [2]: 45.38 (17.08) mg/dL
HDL Median [2]: 42.50 mg/dL
HDL Min [2]: 24.00 mg/dL
HDL Max [3]: 68.00 mg/dL
HDL Mean (SD) [3]: 45.27 (13.68) mg/dL
HDL Median [3]: 42.00 mg/dL
HDL Min [3]: 29.00 mg/dL
HDL Max [4]: 65.00 mg/dL
HDL Mean (SD) [4]: 44.13 (13.24) mg/dL
HDL Median [4]: 41.00 mg/dL
HDL Min [4]: 29.00 mg/dL
HDL V2 to V6 % Change Max [5]: 24.14%
HDL V2 to V6 % Change Mean (SD) [5]: 1.78 (14.18) %
HDL V2 to V6 % Change Median [5]: −2.99%
HDL V2 to V6 % Change Min [5]: −16.3%
HDL V2 to V6 Change Max [5]: 7.00 mg/dL
HDL V2 to V6 Change Mean (SD) [5]: −0.73 (5.75) mg/dL
HDL V2 to V6 Change Median [5]: -1.00 mg/dL
HDL V2 to V6 Change Min [5]: -9.00 mg/dL
HDL V2 to V6 % Change Max [6]: 24.14%
HDL V2 to V6 % Change Mean (SD) [6]: 0.85 (15.61) %
HDL V2 to V6 % Change Median [6]: −3.06%
HDL V2 to V6 % Change Min [6]: −16.3%
HDL V2 to V6 Change Max [6]: 7.00 mg/dL
HDL V2 to V6 Change Mean (SD) [6]: −1.25 (6.11) mg/dL
HDL V2 to V6 Change Median [6]: -1.50 mg/dL
HDL V2 to V6 Change Min [6]: -9.00 mg/dL
HDL Max [7]: 77.00 mg/dL
HDL Mean (SD) [7]: 47.79 (14.77) mg/dL
HDL Median [7]: 40.00 mg/dL
HDL Min [7]: 29.00 mg/dL
HDL Max [8]: 77.00 mg/dL
HDL Mean (SD) [8]: 44.93 (13.59) mg/dL
HDL Median [8]: 40.00 mg/dL
HDL Min [8]: 29.00 mg/dL
HDL Max [9]: 75.00 mg/dL
HDL Mean (SD) [9]: 47.11 (14.59) mg/dL
HDL Median [9]: 41.00 mg/dL
HDL Min [9]: 30.00 mg/dL
HDL Max [10]: 72.00 mg/dL
HDL Mean (SD) [10]: 44.71 (13.00) mg/dL
HDL Median [10]: 39.00 mg/dL
HDL Min [10]: 32.00 mg/dL
HDL V2 to V6 % Change Max [11]: 24.53%
HDL V2 to V6 % Change Mean (SD) [11]: −3.43 (10.55) %
HDL V2 to V6 % Change Median [11]: −5.80%
HDL V2 to V6 % Change Min [11]: −22.7%
HDL V2 to V6 Change Max [11]: 13.00 mg/dL
HDL V2 to V6 Change Mean (SD) [11]: −1.72 (5.19) mg/dL
HDL V2 to V6 Change Median [11]: -3.00 mg/dL
HDL V2 to V6 Change Min [11]: -10.0 mg/dL
HDL V2 to V6 % Change Max [12]: 24.53%
HDL V2 to V6 % Change Mean (SD) [12]: −2.50 (11.26) %
HDL V2 to V6 % Change Median [12]: −4.04%
HDL V2 to V6 % Change Min [12]: −22.7%
HDL V2 to V6 Change Max [12]: 13.00 mg/dL
HDL V2 to V6 Change Mean (SD) [12]: −1.36 (5.64) mg/dL
HDL V2 to V6 Change Median [12]: -2.00 mg/dL
HDL V2 to V6 Change Min [12]: -10.0 mg/dL
